Data set [1] has as its system rabbit pulmonary artery, tyramine-induced noradrenaline release. Conditions: for IC50: read-out: IC50, inhibition of noradrenaline releasing effect of tyramine.
Data set [2] in a line: in vivo. Conditions: rat.
The nature of data set [3]: effect exerted on motility, on rats (spontaneous passings in shuttle-box). It is filed as in vivo, rat. The protocol: II/4. Determination of effect exerted on motility, on rats
The test is carried out in a Shuttle-box without introducing current and light. The number of spontaneous passings over from side of the box to the other is registered and summarized by the apparatus for an observation period of 30 minutes. The test is carried out on groups comprising […] CFY rats of both sexes weighing […]. The test compound of the Formula I is added prior to the test subcutaneously, together with tetrabenazine and desmethyl-imiprmine (DMI) reference compounds, respectively.

Data set [4] concerns tetrabenazine-induced depression. The experiment in a line: antagonism of tetrabenazine-induced depression in learning test: shuttle-box test. It is filed as in vivo, rat. Conditions: N = 12. The text has this: (§1) II/3 Determination of antagonism of tetrabenazine-induced depression, in learning test, on rats
Method: B. Knoll, J. Knoll: Pol. J. Pharmacol. Pharm. 34, 17-23 (1982).
According to this test depression caused by tetrabenazine can be antagonized by the compounds of the Formula I. In Table 3 the numerical values of the series of test carried out by using the compound according to Example 7 are disclosed.

Data set [5] has the same test system. In words: antagonism of tetrabenazine-induced depression in learning test: jumping test. It is filed as in vivo, rat. Conditions: 5 mg/kg tetrabenazine.
From the text: as §1
a) Jumping test. Method: J. Knoll, B. Knoll: Arzneimittel Forschung 8, 339 (1958), 9, 633 (1959).

Data set [6] in a line: psychostimulant effect in rats: shuttle-box test. It is filed as in vivo, rat.
Data set [7] in a line: effect exerted on food intake, in rats. It is filed as in vivo, rat. Conditions: 5 mg/kg, first hour.
Data set [8] has as its system noradrenaline uptake, nucleus free supernatant of rat cortex. The experiment in a line: 3H-noradrenaline uptake in the nucleus free supernatant of rat cortex. It is filed as biochemical. Conditions: 37° C., 5 minutes. The method, then: II/7. Determination of ^3 H-noradrenaine uptake in the nucleus free supernatant of rat cortex (in vivo)
The cortex is homogenized in 0.32M saccharose with a teflon potter, the cell nucleus is sedimented by centrifuging at 0° C. with 1000 g for 20 minutes; the supernatant thus obtained is used for the test. The intake is accomplished in a KrebsHeinseleit solution saturated with carbogen, in a final volume of 1 ml, at a ^3 H-noradrenaline concentration of […]. Pre-incubation and incubation are carried out at 37° C. for 5 minutes each. The reaction is stopped by adding 4 ml of ice-cold Krebs solution and the tissue is separated by GF/B filtration. Non-specific uptake is determined by using 10^-4 M nisoxetine at 37° C. The radioactivity of the GF/B filter-paper is determined by liquid scintillation measurement in a toluene-PPO-POPOPtritone mixture.

The mark [9] stands for this setting: 10 mg/kg s.c., 30 minutes observation.
The mark [10] stands for this setting: 1st day, tetrabenazine 0.5 mg/kg s.c. daily.
[11] abbreviates: 2nd day, tetrabenazine 0.5 mg/kg s.c. daily.
Setting [12] is: 3rd day, tetrabenazine 0.5 mg/kg s.c. daily.
Where [13] appears, read: 4th day, tetrabenazine 0.5 mg/kg s.c. daily.
Setting [14] is: 5th day, tetrabenazine 0.5 mg/kg s.c. daily.
The mark [15] stands for this setting: 1st day, tetrabenazine 0.5 mg/kg + 10 mg/kg compound, s.c. daily.
[16] abbreviates: 2nd day, tetrabenazine 0.5 mg/kg + 10 mg/kg compound, s.c. daily.
Setting [17] is: 3rd day, tetrabenazine 0.5 mg/kg + 10 mg/kg compound, s.c. daily.
The mark [18] stands for this setting: 4th day, tetrabenazine 0.5 mg/kg + 10 mg/kg compound, s.c. daily.
The mark [19] stands for this setting: 5th day, tetrabenazine 0.5 mg/kg + 10 mg/kg compound, s.c. daily.

The source of these data is patent US5075338A (priority 1986, dated 1991).

In general, IC50 refers to the concentration at which inhibition is half-maximal. One may read the LD50 as the dose expected to kill half of the subjects tested. As a reminder, the mortality is the share of the test organisms that died. With `CCCNC(Cc1ccccc1)c1ccccc1.Cl` (stereo not drawn) [Example 3, N-propyl-1,2-diphenyl-ethylamine-hydrochloride], the IC50 in data set [1] was 7470 nM. In data set [2] (sc), the LD50 was 75 mg/kg and the mortality came to 0%. For the same molecule, the motility result in data set [3] (setting [9]) is given as “do not increase motility”.

Regarding `COc1cc2c(cc1OC)C1CC(=O)C(CC(C)C)CN1CC2` (stereo not drawn) [tetrabenazine, reference compound], the “F+ = % of animals showing a conditioned reaction” value in data set [4] (setting [10]) stood at 9.58%; in data set [4] (setting [11]) it was 8.50%; in data set [4] (setting [12]), 11.42%; in data set [4] (setting [13]), 9.8%; in data set [4] (setting [14]), 17.67%. The “IR = number of intersignal reactions” value in data set [4] (setting [10]) came to 10.25; in data set [4] (setting [11]), 8.33; in data set [4] (setting [12]) it was 4.67; in data set [4] (setting [13]), 4.50; in data set [4] (setting [14]) it was 6.92. In addition, the “f+ = % of animals responding to unconditioned stimulus” value (shortened to “f+ = % of animals responding”) in data set [4] (setting [10]) came out at 31.25%; in data set [4] (setting [11]), 30.75%; in data set [4] (setting [12]) it was 15.83%; in data set [4] (setting [13]) it was 17.83%; in data set [4] (setting [14]), 12.58%. Also, the “f- = % of animals which do not respond even to unconditioned stimulus” value in data set [4] (setting [10]) worked out at 59.17%; in data set [4] (setting [11]), 60.75%; in data set [4] (setting [12]), 72.75%; in data set [4] (setting [13]) it was 73.08%; in data set [4] (setting [14]), 69.75%. For the same molecule, the motility result in data set [3] (1 mg/kg tetrabenazine) was “motility inhibiting effect”. Besides, the “inhibition of the solid conditioned reflex” value in data set [5] is given as “completely inhibited”.

Regarding `CCCNC(Cc1ccccc1)Cc1ccccc1.Cl` [Example 5, N-propyl-1,3-diphenyl-2-propylamine-hydrochloride], in data set [2] (sc), the LD50 is > 150 mg/kg and the mortality stood at 0%. In addition, in data set [3] (setting [9]), the motility entry was “do increase motility”.

As for `CCC(Cc1ccccc1)NC1CCCCC1` (stereo not drawn) [Example 9], the IC50 in data set [1] stood at 799 nM. Besides, the LD50 in data set [2] (sc) was 160 mg/kg.

As to `CCCC(Cc1ccccc1)NCCCO` (stereo not drawn) [Example 2, N-(3-hydroxypropyl)-1-phenyl-2-pentylamine], in data set [1], the 50% inhibitory concentration (IC50) worked out at 368 nM. This molecule returned an LD50 in data set [2] (iv) of 50 mg/kg. In addition, in data set [2] (sc), the LD50 is > 200 mg/kg and the mortality is 0%.

Regarding `COCCNC(C)Cc1ccccc1` (stereo not drawn) [Example 7, N-(2-methoxyethyl)-1-phenyl-2-propyl-amine], the IC50 in data set [1] stood at 14100 nM. Further, in data set [2] (sc), the LD50 is > 200 mg/kg and the mortality was 0%. Also, in data set [4] (setting [15]), the “F+ = % of animals showing a conditioned reaction” value is given as 34.60%, the “IR = number of intersignal reactions” value was determined as 10.50, the “f+ = % of animals responding” value came to 49.80% and the “f- = % of animals which do not respond even to unconditioned stimulus” value is given as 16.40%. Also, in data set [4] (setting [16]), the “F+ = % of animals showing a conditioned reaction” value was determined as 62.20%, the “IR = number of intersignal reactions” value turned out to be 14.70, the “f+ = % of animals responding” value is listed as 21.00% and the “f- = % of animals which do not respond even to unconditioned stimulus” value turned out to be 16.80%. Besides, in data set [4] (setting [17]), the “F+ = % of animals showing a conditioned reaction” value was 69.20%, the “IR = number of intersignal reactions” value is given as 21.30, the “f+ = % of animals responding” value worked out at 9.80% and the “f- = % of animals which do not respond even to unconditioned stimulus” value was determined as 21.00%. Further, in data set [4] (setting [18]), the “F+ = % of animals showing a conditioned reaction” value turned out to be 64.90%, the “IR = number of intersignal reactions” value is 14.30, the “f+ = % of animals responding” value was 17.70% and the “f- = % of animals which do not respond even to unconditioned stimulus” value stood at 17.40%. Further, in data set [4] (setting [19]), the “F+ = % of animals showing a conditioned reaction” value is on record as 76.10%, the “IR = number of intersignal reactions” value turned out to be 16.80, the “f+ = % of animals responding” value came out at 8.50% and the “f- = % of animals which do not respond even to unconditioned stimulus” value was 15.40%.

Take `CCCNC(CCC)Cc1ccccc1` (stereo not drawn) [Example 4, N-propyl-1-phenyl-2-pentylamine]: the results for the IC50 in data set [1] and in data set [8] were 1220 nM and 50 nM, respectively. The LD50 was determined as 27 mg/kg in data set [2] (iv), 270 mg/kg in data set [2] (po) and 50 mg/kg in data set [2] (sc). Moreover, the general motility result in data set [6] (0.5 mg/kg daily) is reported as “without signs of increased general motility”. Further, the “performance over the control” value in data set [6] (0.5 mg/kg daily) is listed as “significant increase of performance over the control”. The “increase of the intersignal reactions” value in data set [6] (15 mg/kg daily) is “moderate”. Further, in data set [6] (15 mg/kg daily, complete test-period), the learning and retention result is “increased learning and retentions from the very first day”. Also, in data set [6] (15 mg/kg, one-week learning period, 6 weeks after termination), the “maintenance of acquired performance after termination of treatment” value is listed as “completely maintain the performance acquired”. Besides, in data set [7], the food intake entry is “decreasing effect being approximately identical with that of about 0.5 mg/kg of amphetamine”. The “antagonism of motility inhibiting effect of 1 mg/kg of tetrabenazine” value in data set [3] (1 mg/kg s.c.) is “completely antagonized”. In data set [3] (setting [9]), the motility entry is recorded as “do increase motility”.

In the case of `CCCCC(Cc1ccccc1)NC(C)Cc1ccccc1` (stereo not drawn) [Example 12], the IC50 in data set [1] was 3460 nM. The LD50 is 16 mg/kg in data set [2] (iv) and > 25 mg/kg in data set [2] (sc).

`CCCCCCC(Cc1ccccc1)NCCC` (stereo not drawn) [Example 13]: in data set [1], the IC50 came out at 501 nM. In addition, in data set [2] (sc), the LD50 was > 50 mg/kg and the mortality was 0%.

`CNCCCN1c2ccccc2CCc2ccccc21` [DMI, desmethyl-imiprmine, reference compound] showed an IC50 in data set [8] of 1 to 5 nM. In addition, in data set [3] (DMI reference), the “effect on motility and on tetrabenazine induced depression of motility” value is “inhibitory by itself rather than antagonistic against tetrabenazine induced depression of motility”.

`CCCC(Cc1ccccc1)NC(C)C.Cl` (stereo not drawn) [Example 1, N-iso-propyl-1-phenyl-2-pentylamine-hydrochloride]: the IC50 in data set [1] amounted to 7470 nM. The same molecule showed an LD50 in data set [2] (sc) of 135 mg/kg.

On to `CCNC(CC)Cc1ccccc1` (stereo not drawn) [Example 8], for which the IC50 in data set [1] is 1890 nM. The LD50 in data set [2] (iv) amounted to 46 mg/kg; in data set [2] (sc) it was 195 mg/kg.

For `CCCCC(Cc1ccccc1)NCCC` (stereo not drawn) [Example 11], in data set [1], the “IC50, inhibition of noradrenaline releasing effect of tyramine” value is listed as “can not be given”. This molecule also returned an LD50 in data set [2] (sc) of 110 mg/kg. The food intake result in data set [7] is given as “decreasing effect being approximately identical with that of about 0.5 mg/kg of amphetamine”. The same molecule came in with an IC50 in data set [8] of 100 nM. The motility result in data set [3] (setting [9]) is given as “do increase motility”.

For the molecule `CCCC(Cc1ccccc1)NC` (stereo not drawn) [Example 10], in data set [1], the IC50 stood at 1800 nM. In addition, the LD50 in data set [2] (iv) is 18 mg/kg; in data set [2] (sc), 175 mg/kg.

Take `C#CCN(C)[C@H](C)Cc1ccccc1` [Example 1-deprenyl, reference compound]: in data set [8], the IC50 was 7000 nM.
